Data published in the SangsterLogP compilation.

Experiment: method code SF-AS, from DOI: 10.1021/jm00244a011, PMID: 808606

Row | logP | Compound
1 | 0.6 | O=C(O)CCCCN1C(=O)C=CC1=O
2 | 0.67 | CCOC(=O)CCCN1C(=O)C=CC1=O
3 | 0.4 | O=C(O)CCCN1C(=O)C=CC1=O
4 | 1.5 | CCOC(=O)CCCCCN1C(=O)C=CC1=O
5 | 0.41 | CCOC(=O)CCN1C(=O)C=CC1=O
6 | 1.99 | O=C(O)CCCCCCCN1C(=O)C=CC1=O
7 | 0.49 | CCOC(=O)CN1C(=O)C=CC1=O
8 | -0.14 | O=C(O)CN1C(=O)C=CC1=O
9 | 1.15 | O=C(O)CCCCCN1C(=O)C=CC1=O
10 | 0.04 | O=C(O)CCN1C(=O)C=CC1=O
